# Measurements from patent US9585867B2, “Cannabinod formulation for the sedation of a human or animal” (priority 2015, dated 2017).
# Like-named read-outs stand apart in the source and are kept apart here.
# Legend:
# cannabinoid receptor = conditions: cited from earlier work
# monkeys [1] = assay: Repeated intravenous study with emulsified tetrahydrocannabinol in monkeys; assay type: in vivo; conditions: near-pure tetrahydrocannabinol
# Experimental: Subsequently, intravenous studies were repeated using tetrahydrocannabinol emulsified in a sesame oil, polysorbate 80, or saline vehicles at 15 mg/ml or 40 mg/ml. The emulsions were administered at a uniform rate of 2 ml/15 sec. Doses administered were 1, 4, 16, 64, 92, 128, 192 and 256 mg/kg. All monkeys injected with 92 mg/kg or less survived and completely recovered from all effects within two to four days. An analogous intravenous dosage for a 100 kg human would be 9,200 mg (9.2 g) of near-pure tetrahydrocannabinol. All monkeys injected with 128 mg/kg or more succumb within thirty minutes for all but one subject, which took one-hundred-and-eighty minutes to expire. An analogous lethal intravenous dosage for a 100 kg human would be 12,800 mg (12.8 g) of near-pure tetrahydrocannabinol.
# Histopathological changes found in the lungs of the deceased monkeys were like those described after the previous intravenous experiment. […] Behavioral changes preceding death were salivation, prostration, coma, and tremors.
# Behavioral and physiological changes described clinically in the surviving monkeys followed a consistent developmental sequence and were roughly dose related in severity and duration. Onset was fifteen minutes following injection and duration was up to forty-eight hours. Huddled posture and lethargy were the most persistent changes. Constipation, anorexia, and weight loss were noted. […]
# dog = conditions: cited from earlier work
# rats = conditions: cited from earlier work
# laboratory animals = conditions: cited from earlier work
# monkeys [2] = conditions: cited from earlier work
# dogs = conditions: cited from earlier work
# mice = conditions: cited from earlier work
# monkey = conditions: cited from earlier work
# [3] = Inventor experimentation: intermuscular injection of tetrahydrocannabinol, incapacitation; assay type: in vivo, human; conditions: intermuscular injection of 5.0 mg; overall healthy, 100 kg person
# Experimental: If it is unnecessary to “immediately”, or to “near-immediately”, incapacitate a recipient, the inventive formulation may strictly consist of cannabinoids such as tetrahydrocannabinol. During instant inventor experimentation, an intermuscular injection of 5.0 mg of tetrahydrocannabinol rendered an overall healthy, 100 kg person, fully incapacitated within 10-30 seconds, with its effects lasting approximately four-to-six hours.
# monkeys [4] = conditions: cited from earlier work; remark: listed apart in the source
# [5] = intravenous emulsion 15 or 40 mg/ml, 2 ml/15 sec
structure (smiles),measurement,setting,value
CCCCCCC(C)(C)c1ccc([C@@H]2C[C@H](O)CC[C@H]2CCCO)c(O)c1 [CP-55940],potency relative to phyto-cannabinoid THC,cannabinoid receptor,many times more potent
CCCCCc1cc(O)c2c(c1)OC(C)(C)[C@@H]1CCC(C)=C[C@@H]21 [tetrahydrocannabinol],analogous intravenous dosage for a 100 kg human (survived dose),monkeys [1]; extrapolated from 92 mg/kg in monkeys,"9,200 mg"
same,analogous lethal intravenous dosage for a 100 kg human,monkeys [1]; extrapolated from 128 mg/kg in monkeys,"12,800 mg"
same,nonlethal oral consumption,dog,3 g/kg
same,LD50 dose,rats,28.6 mg per 42.47 kg of body weight
same,time to lethality after intravenous injection,rats; intravenous,within minutes
same,lowest intravenous dosage which causes death,laboratory animals; intravenous,approximately 1000 mg per kg of body weight
same,typical lethal oral dosage,laboratory animals; oral,225-450 mg per kg of body weight
same,acute one dose LD50,"monkeys [2]; intravenous, monkeys, depending on concentration of the solution",15.6 to 62.5 mg/kg
same,time to complete recovery of survivors,monkeys [2]; monkeys that survived the intravenous injection,five to nine
same,minimal lethal intravenous dose,"monkeys [2]; monkeys, depending upon concentration",3.9 to 15.5 mg/kg
same,time to lethality after intravenous injection,"monkeys [2]; monkeys, intravenous",within minutes
same,time to complete recovery of survivors,dogs; dogs that survived the intravenous injection,five to nine
same,minimal lethal intravenous dose,"dogs; dogs, depending upon concentration",25 to 99 mg/kg
same,time to lethality after intravenous injection,"dogs; dogs, intravenous",within minutes
same,acute one dose LD50,"dogs; intravenous, dogs",100 mg/kg
same,LD50 dose,mice,28.6 mg per 42.47 kg of body weight
same,nonlethal oral consumption,monkey,3 g/kg
same,duration of effects,[3],four-to-six
same,time to full incapacitation,[3],10 to 30 s
same,fatalities,"monkeys [4]; 92 mg/kg intravenously, monkeys",no fatalities
same,time to death,"monkeys [4]; 128 mg/kg or more, the one remaining subject",one-hundred-and-eighty
same,dose at which all monkeys succumb,monkeys [4]; [5],≥ 128 mg/kg
same,dose at which all monkeys survived,monkeys [4]; [5],≤ 92 mg/kg
same,time to complete recovery from all effects,monkeys [4]; monkeys injected with 92 mg/kg or less,two to four
same,time to death,"monkeys [4]; monkeys injected with 128 mg/kg or more, all but one subject",thirty
same,time to severe respiratory depression and bradycardia after injection,monkeys [4]; monkeys that died,five
same,duration of behavioral and physiological changes,monkeys [4]; surviving monkeys,up to forty-eight
same,onset of behavioral and physiological changes following injection,monkeys [4]; surviving monkeys,fifteen
same,"time of maximal hypothermia, bradycardia and decreased respiratory rate post injection",monkeys [4]; surviving monkeys,two-to-six
CCCCCCC(C)(C)c1cc(O)c2c(c1)OC(C)(C)[C@@H]1CC=C(CO)C[C@@H]21 [HU-210],potency relative to phyto-cannabinoid THC,cannabinoid receptor,about 100 times
